The record followed here is patent US6762180B1, “Substituted indolines which inhibit receptor tyrosine kinases” (Boehringer Ingelheim Pharma KG, priority 1999, dated 2004).

Data set [1] relates to Human umbilical endothelial cells (HUVEC). As to the kind of experiment: Inhibition of VEGF165-stimulated HUVEC proliferation (3H-thymidine incorporation). Type of data set: cell-based. As to conditions: HUVEC starved 16 hours, stimulated with 5 ng/ml VEGF165 and 10 μg/ml heparin, 76 hours incubation, then 16 hours 3H-thymidine. As to the method:
Human umbilical endothelial cells (HUVEC) were cultivated in IMDM (Gibco BRL), supplemented with 10% foetal calf serum (FBS) (Sigma), 50 μM of β-mercaptoethanol (Fluka), standard antibiotics, 15 μg/ml of endothelial cell growth factor (ECGS, Collaborative Biomedical Products) and 100 μg/ml of heparin (Sigma) on gelatine-coated culture dishes (0.2% gelatine, Sigma) at 37° C., under 5% CO2 in a water-saturated atmosphere.
In order to investigate the inhibitory activity of the compounds according to the invention the cells were starved for 16 hours, i.e. kept in culture medium without growth factors (ECGS+heparin). The cells were detached from the culture dishes using trypsin/EDTA and washed once in serumontaining medium. Then they were seeded out in amounts of 2.5×10^3 cells per well.
The proliferation of the cells was stimulated with 5 ng/ml of VEGF165 (vascular endothelial growth factor; H. Weich, GBF Braunschweig) and 10 μg/ml of heparin. As a control, 6 wells in each dish were not stimulated.
The compounds according to the invention were dissolved in 100% dimethylsulphoxide and added to the cultures in various dilutions in triplicate, the maximum dimethyl sulphoxide concentration being 0.3%.
The cells were incubated for 76 hours at 37° C., then for a further 16 hours ^3H-thymidine (0.1 μCi/well, Amersham) was added in order to determine the DNA synthesis. Then the radioactively labelled cells were immnobilised on filter mats and the radioactivity incorporated was measured in a β-counter. In order to determine the inhibitory activity of the compounds according to the invention the mean value of the non-stimulated cells was subtracted from the mean value of the factor-stimulated cells (in the presence or absence of the compounds according to the invention).
The relative cell proliferation was calculated as a percentage of the control (HUVEC without inhibitor) and the concentration of active substance which inhibits the proliferation of the cells by 50% (IC50) was determined.
A general note: Uptake of a labelled nucleoside into DNA is a usual measure of proliferation.

Take `NC(=O)c1ccc2c(c1)NC(=O)/C2=C(\Nc1ccc(CN2CCCCC2)cc1)c1ccccc1` [(b), 3-Z-[1-(4-(piperidin-1-yl-methyl)-anilino)-1-phenyl-methylene]-6-carbamoyl-2-indolinone]: in data set [1], the IC50 (as a rule, the midpoint of a concentration-inhibition curve) was 350 nM. Same read-out and setting: next, `COC(=O)c1ccc2c(c1)NC(=O)/C2=C(\Nc1ccc(N(CCCN(C)C)S(C)(=O)=O)cc1)c1ccccc1` [(o), 3-Z-[1-(4-(N-(3-dimethylamino-propyl)-N-methylsulphonyl-amino)-anilino)-1-phenyl-methylene]-6methoxycarbonyl-2-indolinone]: 10 nM; `COC(=O)c1ccc2c(c1)NC(=O)/C2=C(\Nc1ccc(N(C)C(=O)CN(C)C)cc1)c1ccccc1` [(m), 3-Z-[1-(4-(N-dimethylaminomethylcarbonyl-N-methyl-amino)-anilino)-1-phenyl-methylene]-6-methoxycarbonyl-2-indolinone]: 20 nM. Turning to `CCNCc1ccc(N/C(=C2\C(=O)Nc3cc(C(=O)OC)ccc32)c2ccccc2)cc1` [(k), 3-Z-[1-(4-ethylaminomethyl-anilino)-1-phenyl-methylene]-6methoxycarbonyl-2-indolinone], the IC50 in data set [1] worked out at 30 nM. Same read-out and setting: the same measure for `CNCc1ccc(N/C(=C2\C(=O)Nc3cc(C(=O)OC)ccc32)c2ccccc2)cc1` [(s), 3-Z-[1-(4methylaminomethyl-anilino)-1-phenyl-methylene]-6-methoxycarbonyl-2-indolinone]: 40 nM.

For `COC(=O)c1ccc2c(c1)NC(=O)/C2=C(\Nc1ccc(-c2nccn2C)cc1)c1ccccc1` [(l), 3-Z-[1-(4-(1-methyl-imidazol-2-yl)-anilino)-1-phenyl-methylene]-6-methoxycarbonyl-2-indolinone], the half-maximal inhibitory concentration (IC50) in data set [1] worked out at 100 nM. `COC(=O)c1ccc2c(c1)NC(=O)/C2=C(\Nc1ccc(N(CCN(C)C)S(C)(=O)=O)cc1)c1ccccc1` [(n), 3-Z-[1-(4-(N-(2-dimethylamino-ethyl)-N-methylsulphonyl-amino)-anilino)-1-phenyl-methylene]-6-methoxycarbonyl-2-indolinone]: the IC50 in data set [1] worked out at 20 nM.

On to `COC(=O)c1ccc2c(c1)NC(=O)/C2=C(\Nc1ccc(Cc2ccccc2)cc1)c1ccccc1` [Example 3(60), 3-Z-[1-(4-benzyl-anilino)-1-phenyl-methylene]-6-methoxycarbonyl-2-indolinone], for which the melting point – broadly, the temperature of the solid-liquid transition – stood at 224 °C. Regarding `CCOC(=O)c1ccc2c(c1)NC(=O)/C2=C(\Nc1ccc(N(CCCN(C)C)C(C)=O)cc1)c1ccccc1` [(g), 3-Z-[1-(4-(N-(3-dimethylamino-propyl)-N-acetyl-amino)-anilino)-1-phenyl-methylene]-6-ethoxycarbonyl-2-indolinone], the IC50 in data set [1] came to 3 nM.

For the compound `COC(=O)c1ccc2c(c1)NC(=O)/C2=C(\Nc1ccc(N(CC(=O)N(C)C)C(C)=O)cc1)c1ccccc1` [(j), 3-Z-[1-(4-(N-acetyl-N-dimethylaminocarbonylmethyl-amino)-anilino)-1-phenyl-methylene]-6-methoxycarbonyl-2-indolinone], the half-maximal inhibitory concentration (IC50) in data set [1] is 20 nM.

Consider `COC(=O)c1ccc2c(c1)NC(=O)/C2=C(\Nc1ccc(CN(C)C)cc1)c1ccccc1` [(i), 3-Z-[1-(4-(dimethylaminomethyl)-anilino)-1-phenyl-methylene]-6-methoxycarbonyl-2-indolinone], for which, in data set [1], the half-inhibitory concentration (IC50) stood at 30 nM. On to `CCOC(=O)c1ccc2c(c1)NC(=O)/C2=C(\Nc1ccc(CN(C)C)cc1)c1ccccc1` [(d), 3-Z-[1-(4-(dimethylaminomethyl)-anilino)-1-phenyl-methylene]-6-ethoxycarbonyl-2-indolinone], for which the IC50 in data set [1] is 20 nM. Turning to `COC(=O)c1ccc2c(c1)NC(=O)/C2=C(\Nc1ccc(N(CC(=O)N(C)C)S(C)(=O)=O)cc1)c1ccccc1` [(p), 3-Z-[1-(4-(N-dimethylaminocarbonylmethyl-N-methylsulphonyl-amino)-anilino)-1-phenyl-methylene]-6-methoxycarbonyl-2-indolinone], the half-maximal inhibitory concentration (IC50) in data set [1] is 20 nM. On the same count and under the same terms, next, `CCOC(=O)c1ccc2c(c1)NC(=O)/C2=C(\Nc1ccc(CN2CCCCC2)cc1)c1ccccc1` [(a), 3-Z-[1-(4-(piperidin-1-yl-methyl)-anilino)-1-phenyl-methylene]-6-ethoxycarbonyl-2-indolinone]: 40 nM. The same measure, in the same setting: the same measure for `COC(=O)c1ccc2c(c1)NC(=O)/C2=C(\Nc1ccc(CN2CCCCC2)cc1)c1ccccc1` [(c), 3-Z-[1-(4-(piperidin-1-yl-methyl)-anilino)-1-phenyl-methylene]-6-methoxycarbonyl-2-indolinone]: 10 nM. On the same count and under the same terms, the same measure for `CCOC(=O)c1ccc2c(c1)NC(=O)/C2=C(\Nc1ccc(N(CCN(C)C)S(C)(=O)=O)cc1)c1ccccc1` [(h), 3-Z-[1-(4-(N-(2-dimethylamino-ethyl)-N-methylsulphonyl-amino)-anilino)-1-phenyl-methylene]-6-ethoxycarbonyl-2-indolinone]: 10 nM; for `CCOC(=O)c1ccc2c(c1)NC(=O)/C2=C(\Nc1ccc(CN2C(C)CCCC2C)cc1)c1ccccc1` (centres unmarked) [(e), 3-Z-[1-(4-((2,6-dimethyl-piperidin-1-yl)-methyl)-anilino)-1-phenyl-methylene]-6-ethoxycarbonyl-2-indolinone]: 50 nM; for `COC(=O)c1ccc2c(c1)NC(=O)/C2=C(\Nc1ccc(N(C)C(=O)CCN(C)C)cc1)c1ccccc1` [(q), 3-Z-[1-(4-(N-((2-dimethylamino-ethyl)-carbonyl)-N-methyl-amino)-anilino)-1-phenyl-methylene]-6-methoxycarbonyl-2-indolinone]: 20 nM. Consider `CCOC(=O)c1ccc2c(c1)NC(=O)/C2=C(\Nc1ccc(N(CCN(C)C)C(C)=O)cc1)c1ccccc1` [(f), 3-Z-[1-(4-(N-(2-dimethylamino-ethyl)-N-acetyl-amino)-anilino)-1-phenyl-methylene]-6-ethoxycarbonyl-2-indolinone], for which the half-maximal inhibitory concentration (IC50) in data set [1] turned out to be 10 nM. Turning to `COC(=O)c1ccc2c(c1)NC(=O)/C2=C(\Nc1ccc(N(CCN(C)C)C(C)=O)cc1)c1ccccc1` [(r), 3-Z-[1-(4-(N-(2-dimethylamino-ethyl)-N-acetyl-amino)-anilino)-1-phenyl-methylene]-6-methoxycarbonyl-2-indolinone], the IC50 in data set [1] is 10 nM.
